Measurements as given in PMC8761492 (Life Science Alliance, 2022).
Starred links: 1 amine or outer side, 2 acyl side, 3 side chain; linkers in the order of their positions; H or OH if unused. Positions of bridges follow the written chain, without caps; N, C: chain ends. Non-standard residues stand in square brackets, D forms with d. Residues, ends and D or L forms follow the SMILES beside them. *: point of attachment. X1 = CC[C@H](C)[C@@H](N[*:1])[C@@H](O)CC(=O)O[C@H](C(=O)[C@H](C)C(=O)[*:2])C(C)C; NMeY = CN[C@@H](Cc1ccc(O)cc1)C(=O)O; dNMeL = CN[C@H](CC(C)C)C(=O)O; Pyruvoyl = CC(=O)C(=O)*

How the values were obtained:
[1] = Plasma protein binding by equilibrium dialysis, rat plasma; format: in vitro ADME; settings: male, CD, independent of drug concentration
Method: The binding of plitidepsin to plasma proteins was determined in vitro at three concentrations (100, 250 and 500 ng/ml) in male rat, dog and human plasma ([53]).
Rat (CD), beagle dog, and human blood was collected at Aptuit Srl from at least three male donors, and plasma prepared by centrifuging blood at 2,000g, 4°C for 10 min. Human plasma was obtained from healthy and fasted male volunteers. Na-heparin was used as the anti-coagulant for all species. All plasma was stored at approximately −20°C and thawed only once, on the day of the experiment.
Plasma protein binding was assessed using Rapid Equilibrium Dialysis plates pre-loaded with equilibrium dialysis membrane inserts (MWCO ∼8 kD).
Separation of free compound from protein-bound material was achieved by dialysis of the sample through the membrane under appropriate shaking at 37°C. The suitability of equilibrium dialysis as a method for protein binding determination of plitidepsin was assessed.
Before experimentation, the time required to reach equilibrium was determined in male rat and human plasma at one concentration (250 ng/ml) and six selected time points (2, 3, 4, 5, 6, and 7 h) at 37°C. […]

[2] = APLICOV-PC: safety, adverse events and laboratory abnormalities; format: in vivo, human
Method: The plitidepsin clinical proof-of-concept study (APLICOV-PC, APL-D-002-20; EudraCT #2020-001993-31; NCT04382066) was a multicenter, randomized, parallel, open-label, proof-of-concept clinical trial, exploring three dose levels of plitidepsin (1.5, 2.0, and 2.5 mg/day, flat doses) for 3 consecutive days, as a 90-min i.v. infusion, in adult patients with COVID-19 who required hospitalization. The study was conducted in 10 hospital centers in Spain between 12 May 2020 and 26 November 2020. Presented data reflect all analyses completed by the cut-off date of 10 December 2020. The research was performed in accordance with good clinical practice guidelines and adhered to the tenets of the Declaration of Helsinki. The study protocol is available in Supplemental Data 1. Supplemental Data 2 summarizes the protocol amendments as well as post hoc analyses that were performed.
Adult (aged ≥18 yr) hospitalized patients with a positive SARS-CoV-2 infection confirmed by real-time RT-PCR testing of a nasopharyngeal exudate or the lower respiratory tract were eligible for inclusion in this study. Despite the eligibility of patients with samples from the lower respiratory tract, all patients reported here had only nasopharyngeal swab samples. Included patients must have had the onset of SARS-CoV-2 infection symptoms no more than 10 d before initiating the study. […] Women and men with partners of childbearing potential agreed to take effective contraception while on study and for 6 mo after the last dose of plitidepsin. All included patients provided written informed consent before the initiation of the study.
Key exclusion criteria included participation in another COVID-19–related clinical trial; receiving antivirals, chloroquine or derivatives, IL-6 receptor inhibitors, or immunomodulatory drugs for treatment of COVID-19; or requiring mechanical ventilation support at enrollment. Patients were also excluded for evidence of multi-organ failure, clinically relevant heart disease, clinically relevant arrhythmia or history of QTc interval prolongation, or neuropathy ≥ grade 2. Full exclusion criteria can be found in Supplemental Data 1.
Randomization was done through registration in the study’s electronic case report form. The system assigned a unique randomization number for each patient. Patients were enrolled sequentially and allocated by block randomization into the three dose groups (1.5, 2.0, and 2.5 mg plitidepsin) up to an initial sample size of nine patients per group. To ensure safety, the first three patients in the 2.0 mg group could not be enrolled until the first three patients in the 1.5 mg cohort had successfully completed Day 15 assessments (12 d after completing plitidepsin dosing); similarly, the first three patients in the 2.5 mg cohort could be not enrolled until the first three patients in the 2.0 mg cohort had successfully completed Day 15 assessments (12 d after completing plitidepsin dosing). Finally, three patients had to be treated in the 2.5 mg cohort to complete the accrual of nine patients per cohort. When multiple dose levels were open for enrollment, patients were randomized 1:1 or 1:1:1 as appropriate (Fig 4). After an interim safety analysis, a protocol amendment was approved to subsequently expand the accrual up to 45 patients (six additional patients per dose group).
Enrolled patients received plitidepsin administered as an i.v. infusion over 90 min on days 1, 2, and 3 at dose levels of 1.5, 2.0, and 2.5 mg. A single batch (Lot 16D19) was administered to all patients. All patients also received, 20–30 min before the infusion of plitidepsin (i.e., on days 1–3), a premedication regimen consisting in: diphenhydramine 25 mg i.v., ranitidine 50 mg i.v., and dexamethasone 8 mg orally. […]

[3] = Post-amendment (n = 36), Grade 1
[4] = Post-amendment (n = 36), Grade 2
[5] = after the premedication amendment
[6] = before the premedication amendment

## CC[C@H](C)[C@H]1NC(=O)[C@@H](NC(=O)[C@@H](CC(C)C)N(C)C(=O)[C@@H]2CCCN2C(=O)C(C)=O)[C@@H](C)OC(=O)[C@H](Cc2ccc(OC)cc2)N(C)C(=O)[C@@H]2CCCN2C(=O)[C@H](CC(C)C)NC(=O)[C@@H](C)C(=O)[C@H](C(C)C)OC(=O)C[C@@H]1O [Plitidepsin] (Pyruvoyl-P[dNMeL]T[X1]LP[NMeY](Me); ester 3-C)
[1]
  fraction unbound: 0.04
[2]; 1.5 mg cohort
  prevalence of grade 3–4 AEs: 33.3%
[2]; 2.0 mg cohort
  prevalence of grade 3–4 AEs: 20.0%
[2]; 2.5 mg cohort
  prevalence of grade 3–4 AEs: 40.0%
[2]; 3 of 37 with normal baseline values
  patients with Grade 1 increase in CPK: 8.1%
[2]; 5 of 12 with Grade 1 thrombocytopenia at entry
  patients whose platelet counts normalized: 41.7%
[2]; 8 of 45, none considered related to plitidepsin
  patients with hyperglycemia: 18%
[2]; 13 of 44, regardless of causality
  patients with elevation of AST: 30%
[2]; 29 of 44, regardless of causality
  patients with elevation of ALT: 66%
[2]; 36 patients, 108 infusions
  hypersensitivity reactions after changes to premedication: No new hypersensitivity reactions
[2]; Grade 3 hypersensitivity reaction, one event
  serious adverse event considered related to the study drug: 2.2 % subjects
[2]; [3]
  Abdominal pain: 2 (5.6%) N (%)
  Anorexia: 1 (2.8%) N (%)
  Asthenia: 1 (2.8%) N (%)
  Chest discomfort: 1 (2.8%) N (%)
  Diarrhea: 1 (2.8%) N (%)
  Dizziness: 2 (5.6%) N (%)
  Dysgeusia: 2 (5.6%) N (%)
  Dyspepsia: 2 (5.6%) N (%)
  Dysthermia: 1 (2.8%) N (%)
  Nausea: 11 (30.6%) N (%)
  Temperature regulation disorder: 1 (2.8%) N (%)
  Vomiting: 3 (8.3%) N (%)
[2]; [4]
  Amylase increased: 1 (2.8%) N (%)
  Asthenia: 1 (2.8%) N (%)
  Decreased appetite: 1 (2.8%) N (%)
  Diarrhea: 1 (2.8%) N (%)
  Lipase increased: 1 (2.8%) N (%)
  Nausea: 3 (8.3%) N (%)
  Vomiting: 2 (5.6%) N (%)
[2]; Post-amendment (n = 36), Grade 3
  Diarrhea: 1 (2.8%) N (%)
[2]; Pre-amendment (n = 9), Grade 1
  Nausea: 3 (33.3%) N (%)
  Vomiting: 2 (22.2%) N (%)
[2]; Pre-amendment (n = 9), Grade 2
  Nausea: 2 (22.2%) N (%)
[2]; Pre-amendment (n = 9), Grade 3
  Anaphylactic reaction: 1 (11.1%) N (%)
[2]; [5]
  proportion of patients with nausea: 38.9%
  proportion of patients with vomiting: 13.9%
[2]; all doses
  Grade 4 AEs: No Grade 4 AEs were reported
  hemotoxicity: did not show signs of clinically relevant hemotoxicity
[2]; all doses, 25 patients
  patients with treatment related adverse events: 55.5%
[2]; all doses, 44 of 45
  patients with one or more adverse events: 97.8%
[2]; all doses, 45 treated patients
  treatment-related abdominal pain: 4.4%
  treatment-related diarrhea: 6.7%
  treatment-related dizziness: 4.4%
  treatment-related dysgeusia: 4.4%
  treatment-related nausea: 42.2%
  treatment-related vomiting: 15.6%
[2]; all doses, NCI-CTCAE v5
  patients with at least one Grade ≥ 3 AE regardless of causality: 31%
[2]; anaphylactic reaction at 1.5 mg/day and diarrhea at 2.5 mg/day
  number of Grade 3 AEs attributed to plitidepsin: Two
[2]; [6]
  proportion of patients with nausea: 55.6%
  proportion of patients with vomiting: 22.2%
[2]; four of five with Grade 1–2 elevation at entry
  patients whose CPK values decreased on study: 80%
[2]; three of 45 treated patients, days 22, 30 and 57
  patients who died (COVID-19-related): 6.7%
